Patent publication US20250345277A1, “Ionizable Liposome, Preparation Thereof, and Application Thereof in Gene Delivery” (MAXIRNA (ZHEJIANG) TECHNOLOGY CO. LTD., priority 2021, published 2025)

Experiments:
[1] = In vitro stability test of LNP preparation stored at 4-8 °C; type: physicochemical; settings: stored at 4-8° C. for 16 weeks; transfection tested on DC2.4
Procedure: The preparation from Example 2 was stored at 4° C.-8° C. Samples were taken every other week to test the transfection performance of the samples on DC2.4, the size of the nanoparticles and the polydispersity index PDI. The whole process lasted 16 weeks. […] Other LNP preparations were stored at 4-8° C. for 16 weeks, and the particle size, PDI, and cell transfection efficiency also maintained the initial state.

TIL cells = assay: In vitro transfection of TIL cells with EGFP mRNA LNP preparation; type: cell-based, human
Text: The description is based on peripheral blood mononuclear cells PBMC (Shanghai Oribiotech Co., Ltd.), human peripheral blood leukemia T cell Jurkat (ATCC), tumor infiltrating lymphocyte TIL (isolated from resected tumor tissue of a liver cancer patient, the preparation method refers to CN114763530A), mouse bone marrow-derived dendritic cells DC2.4 (Cell Bank of the Chinese Academy of Sciences), and Chinese hamster ovary cells CHO (ATCC) were used as verified cell lines for liposome transfection. PBMC, Jurkat, and TIL cells grew in suspension, while DC2.4 and CHO cells grew by adherent culture. All the operation steps of cell culture must strictly abide by the prescribed procedures, and sterile reagents is used to perform aseptic operations under a sterile workbench. The main steps are as follows: • 1) Cell recovery: the preserved cell cryopreservation solution was taken out of the −80° C. refrigerator, and was immediately put in a 37° C. water bath for rapid and continuous shaking, and was completely melted within one minute. Fresh medium was added to the 15 mL centrifuge tube in advance, and the cell solution was added to the centrifuge tube in a biological safety cabinet. A centrifuge tube of the same quality was taken and placed symmetrically in a centrifuge, centrifuged at a low speed at 1200 rpm for 5 min. After centrifugation, the supernatant was removed, and an appropriate amount of medium was slowly added along the tube wall. After the cells were evenly dispersed by blowing gently, the cell suspension was pipette and added to the culture bottle prepared in advance. The state and distribution of the cells in the early stage of recovery were observed under a microscope. The culture bottle was placed in a 5% CO2 incubator and incubated at 37° C., and the recovery time was recorded. • 2) Cell subculture: Under the microscope, if the cell density in the field of view reaches 80%-90%, the cells can be subcultured. Adherent cells need to be digested with trypsin. […]

Compound: CCCCCCCCCCCCC(O)CN(CCOCCN(CCOCCN(CC(O)CCCCCCCCCCCC)CC(O)CCCCCCCCCCCC)CCN1CCN(CCOCCN(CC(O)CCCCCCCCCCCC)CC(O)CCCCCCCCCCCC)CC1)CC(O)CCCCCCCCCCCC (stereo not shown) [B-C14]
- particle size, PDI and cell transfection efficiency on storage (FIG. 8) [1]: remained in the initial state
- cell viability by flow cytometry (FIG. 1) (TIL cells; after in vitro transfection, ApoE4 did not affect viability): high viability
- transfection efficiency (FIG. 2) (TIL cells; in the absence of AopE4): low transfection efficiency
- change of transfection efficiency with ApoE4 (FIG. 3) (TIL cells; with ApoE4 versus without): increased
